≈ marks a conversion by molar mass, not a printed value. Calls of active or inactive are those of the source. The rule behind the calls is not given here.
What was measured:
Candida parapsilosis = test: Antifungal activity against Candida parapsilosis GIM 2.190 assessed as inhibition of visible growth; format: functional; settings: Lodderomyces parapsilosis
Candida tropicalis = test: Antifungal activity against Candida tropicalis CGMCC 2.3739 assessed as inhibition of visible growth; format: functional
Candida albicans [1] = test: Antifungal activity against Candida albicans CPCC 400616 assessed as inhibition of visible growth; format: functional
Nakaseomyces glabratus = test: Antifungal activity against Clinical isolate Candida glabrata assessed as inhibition of visible growth; format: functional
Aspergillus fumigatus = test: Antifungal activity against Aspergillus fumigatus CGMCC 3.7795 assessed as inhibition of visible growth; format: functional
Cryptococcus neoformans = test: Antifungal activity against Cryptococcus neoformans CGMCC 2.3161 assessed as inhibition of visible growth; format: functional
Candida albicans [2] = test: Antifungal activity against Candida albicans SC 5314 assessed as inhibition of visible growth; format: functional
Pichia kudriavzevii = test: Antifungal activity against Candida krusei AS 2.1045 assessed as inhibition of visible growth; format: functional
Cell membrane [3] = test: Induction of loss of cell membrane integrity in Candida albicans SC5314 assessed as irregular cell morphology at 16 microg/ml measured after 48 hrs incubation by transmission electron microscopy; format: subcellular; settings: dose 16.0 µg/ml, tested as the 2H-labelled form
Mus musculus = test: In vivo antifungal activity against Candida albicans SC5314 infected in ICR mouse model assessed as mouse survival at 1 mg/kg, oral gavage measured for 21 days post infection; format: functional, organism-based; settings: time 21.0 day, tested as the 2H-labelled form
Cell membrane [4] = test: Induction of loss of cell membrane integrity in Candida albicans SC5314 assessed as leakage of intracellular components into the extracellular environment at 16 microg/ml measured after 48 hrs incubation by transmission electron microscopy; format: subcellular; settings: dose 16.0 µg/ml
Candida albicans [5] = test: In vivo anti-resistant activity against fluconazole-resistant Candida albicans strain 17# infected in cyclophosphamide-immunosuppressed ICR mouse model assessed as reduction in fungal burden in kidney at 10 mg/kg, oral gavage for 5 days post infection; format: functional, organism-based; settings: time 5.0 day, tested as the 2H-labelled form
Candida albicans [6] = test: Antifungal activity against Candida albicans CPCC 400616 assessed as suppression of hyphal formation (inhibition of yeast to hypha transition) at 2 microg/ml measured after 4 hrs by inverted microscopy; format: functional, organism-based; settings: dose 2.0 µg/ml, tested as the 2H-labelled form
Candida albicans [7] = test: In vivo antifungal activity against Candida albicans SC5314 infected in cyclophosphamide-immunosuppressed ICR mouse model assessed as reduction in fungal burden in kidney at 5 mg/kg, oral gavage for 5 days post infection; format: functional, organism-based; settings: time 5.0 day, tested as the 2H-labelled form
Candida albicans [8] = test: In vivo antifungal activity against Candida albicans SC5314 infected in cyclophosphamide-immunosuppressed ICR mouse model assessed as reduction in fungal burden in kidney at 1 mg/kg, oral gavage for 5 days post infection; format: functional, organism-based; settings: time 5.0 day, tested as the 2H-labelled form
Candida albicans [9] = test: In vivo anti-resistant activity against fluconazole-resistant Candida albicans strain 17# infected in cyclophosphamide-immunosuppressed ICR mouse model assessed as reduction in fungal burden in kidney at 5 mg/kg, oral gavage for 5 days post infection; format: functional, organism-based; settings: time 5.0 day, tested as the 2H-labelled form
[10] = Metabolic stability in human liver microsomes assessed as compound remaining measured up to 60 mins by LC-MS/MS analysis; format: ADME, Microsome
[11] = Metabolic stability in human liver microsomes assessed as half life by LC-MS/MS analysis; format: ADME, Microsome

Row | SMILES | MIC80 (Candida parapsilosis) [µg/mL] | MIC80 (Candida tropicalis) [µg/mL] | MIC80 (Candida albicans [1]) [µg/mL] | MIC80 (Nakaseomyces glabratus) [µg/mL] | MIC80 (Aspergillus fumigatus) [µg/mL] | MIC80 (Cryptococcus neoformans) [µg/mL] | MIC80 (Candida albicans [2]) [µg/mL] | MIC80 (Pichia kudriavzevii) [µg/mL] | remaining at 1 h ([10]; liver microsomes, read-out: Activity) [%] | half-life ([11]; liver microsomes) [min] | Activity ([10]; microsomes, 1 h) [%] | t1/2 ([11]; microsomes) [min] | Activity (Cell membrane [3]) | Activity (Mus musculus) | Activity (Cell membrane [4]) | Activity (Candida albicans [5]) | inhibition (Candida albicans [6]) | Activity (Candida albicans [7]) | Activity (Candida albicans [8]) | Activity (Candida albicans [9])
1 | [2H]C([2H])([2H])N(Cc1ccc(-c2ccc(Cl)cc2)cc1)[C@H](C)[C@](O)(Cn1cncn1)c1ccc(F)cc1F | 0.006 (≈ 0.0123 µM) | 0.006 (≈ 0.0123 µM) | 0.006 (≈ 0.0123 µM) | 0.012 (≈ 0.0247 µM) | 0.025 (≈ 0.0514 µM) | 0.006 (≈ 0.0123 µM) | 0.006 (≈ 0.0123 µM) | 0.012 (≈ 0.0247 µM) | – | – | – | – | – | – | – | – | – | – | – | –
2 | [2H]C([2H])([2H])N(Cc1ccc(-c2ccc(Cl)c(F)c2)cc1F)[C@H](C)[C@](O)(Cn1cncn1)c1ccc(F)cc1F | 0.012 (≈ 0.023 µM) | 0.012 (≈ 0.023 µM) | 0.012 (≈ 0.023 µM) | 0.025 (≈ 0.0479 µM) | 0.05 (≈ 0.0958 µM) | 0.025 (≈ 0.0479 µM) | 0.012 (≈ 0.023 µM) | 0.025 (≈ 0.0479 µM) | – | – | – | – | – | – | – | – | – | – | – | –
3 | C[C@@H](N(C)Cc1ccc(-c2ccc(OC(F)(F)F)cc2)cc1)[C@](O)(Cn1cncn1)c1ccc(F)cc1F | – | – | – | – | – | – | – | – | – | – | – | – | Active | inactive | Active | Active; Compound Showed Far Superior Effect Than Fluconazole | Active | Active | Active; Low Dose Antifungal Activity Weaker Than Fluconazole (Positive Control) | Active
4 | CC(C)c1ccc(-c2ccc(CN(C)CC(O)(Cn3cncn3)c3ccc(F)cc3F)nc2)cc1 (configuration not stated) | 0.012 (≈ 0.0251 µM) | 0.012 (≈ 0.0251 µM) | 0.012 (≈ 0.0251 µM) | 0.2 (≈ 0.419 µM) | – | 0.025 (≈ 0.0523 µM) | 0.012 (≈ 0.0251 µM) | 0.1 (≈ 0.209 µM) | – | – | – | – | – | – | – | – | – | – | – | –
5 | [2H]C([2H])([2H])N(Cc1ccc(-c2ccc(Cl)cc2F)nc1)[C@H](C)[C@](O)(Cn1cncn1)c1ccc(F)cc1F | 0.006 (≈ 0.0119 µM) | 0.012 (≈ 0.0238 µM) | 0.006 (≈ 0.0119 µM) | 0.012 (≈ 0.0238 µM) | 0.05 (≈ 0.099 µM) | 0.012 (≈ 0.0238 µM) | 0.012 (≈ 0.0238 µM) | 0.012 (≈ 0.0238 µM) | – | – | – | – | – | – | – | – | – | – | – | –
6 | CN(Cc1nc(-c2ccc(C(F)(F)F)cc2)cs1)CC(O)(Cn1cncn1)c1ccc(F)cc1F (configuration not stated) | 0.012 (≈ 0.0236 µM) | 0.025 (≈ 0.0491 µM) | 0.025 (≈ 0.0491 µM) | 3.2 (≈ 6.28 µM) | – | 0.2 (≈ 0.393 µM) | 0.012 (≈ 0.0236 µM) | 0.8 (≈ 1.57 µM) | – | – | – | – | – | – | – | – | – | – | – | –
7 | [2H]C([2H])([2H])N(Cc1ccc(-c2ccc(C(F)(F)F)cc2)cc1F)[C@H](C)[C@](O)(Cn1cncn1)c1ccc(F)cc1F | 0.012 (≈ 0.0223 µM) | 0.012 (≈ 0.0223 µM) | 0.012 (≈ 0.0223 µM) | 0.025 (≈ 0.0465 µM) | 0.05 (≈ 0.093 µM) | 0.025 (≈ 0.0465 µM) | 0.012 (≈ 0.0223 µM) | 0.05 (≈ 0.093 µM) | – | – | – | – | – | – | – | – | – | – | – | –
8 | CN(Cc1ccc(-c2ccc(OCC(F)(F)F)cc2)cn1)CC(O)(Cn1cncn1)c1ccc(F)cc1F (configuration not stated) | 0.012 (≈ 0.0225 µM) | 0.012 (≈ 0.0225 µM) | 0.012 (≈ 0.0225 µM) | 0.1 (≈ 0.187 µM) | – | 0.1 (≈ 0.187 µM) | 0.012 (≈ 0.0225 µM) | 0.05 (≈ 0.0937 µM) | – | – | – | – | – | – | – | – | – | – | – | –

The next lines start with results.

Row | MIC80 (Candida parapsilosis) [µg/mL] | MIC80 (Candida tropicalis) [µg/mL] | MIC80 (Candida albicans [1]) [µg/mL] | MIC80 (Nakaseomyces glabratus) [µg/mL] | MIC80 (Aspergillus fumigatus) [µg/mL] | MIC80 (Cryptococcus neoformans) [µg/mL] | MIC80 (Candida albicans [2]) [µg/mL] | MIC80 (Pichia kudriavzevii) [µg/mL] | remaining at 1 h ([10]; liver microsomes, read-out: Activity) [%] | half-life ([11]; liver microsomes) [min] | Activity ([10]; microsomes, 1 h) [%] | t1/2 ([11]; microsomes) [min] | SMILES | Activity (Cell membrane [3]) | Activity (Mus musculus) | Activity (Cell membrane [4]) | Activity (Candida albicans [5]) | inhibition (Candida albicans [6]) | Activity (Candida albicans [7]) | Activity (Candida albicans [8]) | Activity (Candida albicans [9])
9 | 0.006 (≈ 0.0123 µM) | 0.006 (≈ 0.0123 µM) | 0.006 (≈ 0.0123 µM) | 0.025 (≈ 0.0513 µM) | – | 0.012 (≈ 0.0246 µM) | 0.006 (≈ 0.0123 µM) | 0.025 (≈ 0.0513 µM) | – | – | – | – | CN(Cc1ccc(-c2ccc(Cl)cc2)cc1F)CC(O)(Cn1cncn1)c1ccc(F)cc1F (configuration not stated) | – | – | – | – | – | – | – | –
10 | 0.012 (≈ 0.0252 µM) | 0.025 (≈ 0.0525 µM) | 0.012 (≈ 0.0252 µM) | 0.4 (≈ 0.84 µM) | – | 0.8 (≈ 1.68 µM) | 0.012 (≈ 0.0252 µM) | 0.2 (≈ 0.42 µM) | – | – | – | – | CN(Cc1nc(-c2ccc(Cl)cc2)cs1)CC(O)(Cn1cncn1)c1ccc(F)cc1F (configuration not stated) | – | – | – | – | – | – | – | –
11 | 0.006 (≈ 0.0115 µM) | 0.006 (≈ 0.0115 µM) | 0.006 (≈ 0.0115 µM) | 0.012 (≈ 0.0231 µM) | 0.025 (≈ 0.0481 µM) | 0.012 (≈ 0.0231 µM) | 0.006 (≈ 0.0115 µM) | 0.012 (≈ 0.0231 µM) | 29 | 35.1 | – | – | [2H]C([2H])([2H])N(Cc1ccc(-c2ccc(C(F)(F)F)cc2)cc1)[C@H](C)[C@](O)(Cn1cncn1)c1ccc(F)cc1F | – | – | – | – | – | – | – | –
12 | 0.006 (≈ 0.0128 µM) | 0.006 (≈ 0.0128 µM) | 0.006 (≈ 0.0128 µM) | 0.012 (≈ 0.0256 µM) | – | 0.012 (≈ 0.0256 µM) | 0.006 (≈ 0.0128 µM) | 0.012 (≈ 0.0256 µM) | – | – | 21.3 | 9.23 | CN(Cc1ccc(-c2ccc(Cl)cc2)cc1)CC(O)(Cn1cncn1)c1ccc(F)cc1F (configuration not stated) | – | – | – | – | – | – | – | –
13 | 0.006 (≈ 0.0119 µM) | 0.006 (≈ 0.0119 µM) | 0.012 (≈ 0.0238 µM) | 0.012 (≈ 0.0238 µM) | 0.025 (≈ 0.0495 µM) | 0.012 (≈ 0.0238 µM) | 0.012 (≈ 0.0238 µM) | 0.012 (≈ 0.0238 µM) | – | – | – | – | [2H]C([2H])([2H])N(Cc1ccc(-c2ccc(Cl)c(F)c2)nc1)[C@H](C)[C@](O)(Cn1cncn1)c1ccc(F)cc1F | – | – | – | – | – | – | – | –

— ChEMBL document CHEMBL6182926, “Design, Synthesis, and Biological Activity Evaluation of Deuterated Diphenyl Azole Alcohol-Based CYP51 Inhibitors” (J Med Chem, 2025)
